Usually mortality stands for the percentage killed.

Assay [1] deals with mustard beetle larvae (Phaedon cochleariae). Nature of the assay: Phaedon cochleariae - spray test. Type of assay: in vivo. The following applies: 48 h. On the procedure:
(§1) The expected efficacy of a given combination of two compounds is calculated as follows (see Colby, S. R., “Calculating Synergistic and antagonistic Responses of Herbicide Combinations”, Weeds 15, pp. 20-22, 1967):
(§2) • X is the efficacy expressed in % mortality of the untreated control for test compound A at a concentration of m ppm respectively m g/ha, • Y is the efficacy expressed in % mortality of the untreated control for test compound B at a concentration of n ppm respectively n g/ha, • E is the efficacy expressed in % mortality of the untreated control using the mixture of A and B at m and n ppm respectively m and n g/ha, then is
(§3) If the observed insecticidal efficacy of the combination is higher than the one calculated as “E”, then the combination of the two compounds is more than additive, i.e., there is a synergistic effect.
Solvent: 78.0 parts by weight of acetone
• 1.5 parts by weight of dimethylformamide Emulsifier: 0.5 parts by weight of alkylaryl polyglycolether To produce a suitable preparation of active compound, 1 part by weight of active compound is mixed with the stated amount of solvent and emulsifier, and the concentrate is diluted with emulsifier-containing water to the desired concentration. To produce a suitable preparation of a spore suspension the spores are diluted with emulsifier-containing water to the desired concentration.
Chinese cabbage (Brassica pekinensis) leaf-disks are sprayed with a preparation of the active ingredient of the desired concentration. Once dry, the leaf disks are infested with mustard beetle larvae (Phaedon cochleariae).
After the specified period of time, mortality in % is determined. 100% means all beetle larvae have been killed and 0% means none of the beetle larvae have been killed. The mortality values determined thus are recalculated using the Colby-formula (see sheet 1).

Assay [2] has as its system larvae of the diamondback moth (Plutella xylostella). In words: Plutella xylostella - spray test. Format: in vivo. As to conditions: 48 h, read-out: Efficacy in % after 2 d (mortality). On the procedure:
as §1, §2, §3
Solvent: 7 parts by weight of dimethylformamide
Emulsifier: 2 parts by weight of alkylaryl polyglycolether […]
After the specified period of time, the mortality in % is determined. […] The mortality values determined thus are recalculated using the Colby-formula (see sheet 1).

Setting [3] is: read-out: Efficacy in % after 2 d (mortality).

On to `Cc1cc(C(F)(C(F)(F)F)C(F)(F)F)ccc1NC(=O)c1cccc(Cl)c1C(=O)NC(C)(C)C#N` [(I-5)], for which, in assay [1] (6 g ai/ha, after 2 d, Table A-2, read-out: Efficacy in % after 2 d (mortality)), the mortality at 6 g/ha is 0%. Also, the mortality at 12 g/ha in assay [1] (12 g ai/ha, after 2 d, Table A-2, read-out: Efficacy in % after 2 d (mortality)) stood at 0%. Further, the mortality at 4 g/ha in assay [1] (foliar, 4 g ai/ha, Chinese cabbage leaf disks sprayed, after 2 d, Table A-1, read-out: Efficacy in % after 2 d (mortality)) is 0%. For the same compound, the mortality at 0.0625 ppm in assay [2] (0.0625 ppm, cabbage leaves sprayed, after 2 d) came out at 0%.

Turning to `N#Cc1nn(-c2c(Cl)cc(C(F)(F)F)cc2Cl)c(N)c1[S+]([O-])C(F)(F)F` (centres unmarked) [Fipronil, fipronil], the mortality at 0.3 g/ha in assay [1] (setting [3]) was 0%. Moreover, in assay [2] (in Brassica oleracea), the mortality at 0.125 ppm was 45%.

Take `CC[S+]([O-])c1c(C#N)nn(-c2c(Cl)cc(C(F)(F)F)cc2Cl)c1N` (centres unmarked) [Ethiprole (II-2), ethiprole]: the mortality at 1.2 g/ha in assay [1] (setting [3]) amounted to 33%. Also, the mortality at 0.8 g/ha in assay [1] (in Brassica rapa, foliar, read-out: Efficacy in % after 2 d (mortality)) amounted to 50%.

(Values after US9549557B2, “Insecticidal synergistic combinations of phthaldiamide derivatives and fipronil or ethiprole” (BAYER CROPSCIENCE AKTIENGESELLSCHAFT, priority 2013, dated 2017).)
